Measured values published in the Deep4Chem optical property database.

Experiment: solvent given as SMILES

**Q.** With `CC(C)(C)c1cc(-c2ccc(-c3cc(C(C)(C)C)cc(C(C)(C)C)c3)cc2)cc(C(C)(C)C)c1` as the molecule, how does the emission maximum (in C1COCCO1) read?
**A.** 349 nm

**Q.** Which emission maximum (in ClCCl) does the source give for `CCCCCCn1c(=O)c2c3oc4ccccc4oc3c3c(=O)n(CCCCCC)c(=O)c3c2c1=O` here?
**A.** 487 nm

**Q.** Which results are given for `Cc1ccc2c(c1)C1(c3ccccc3Oc3ccccc31)c1cc(C)ccc1N2c1ccc(-c2ncccn2)cc1`?
**A.** emission maximum (in Cc1ccccc1): 454 nm; emission maximum (in O=P(c1ccccc1)(c1ccccc1)c1ccc2oc3ccc(P(=O)(c4ccccc4)c4ccccc4)cc3c2c1): 458 nm

**Q.** With `CC(C)[Si](C#Cc1c2ccccc2c(C#C[Si](C(C)C)(C(C)C)C(C)C)c2nc3c(nc12)Cc1ccccc1-3)(C(C)C)C(C)C` as the molecule, how does the emission maximum (in CCCCCC) read?
**A.** 494 nm

**Q.** With `c1cc2ccc3[se]c4ccc5cccc6c(c1)c2c3c4c56` as the molecule, how does the emission maximum (in ClC(Cl)Cl) read?
**A.** 424 nm

**Q.** Which emission maximum (in O) does the source give for `N[C@@H](Cc1ccc(O)cc1)C(=O)O` here?
**A.** 300 nm

**Q.** For `O=Cc1c(O)c(-c2nc3ccccc3s2)cc2ccccc12`, which emission maximum (in C1CCOC1) is on record?
**A.** 497 nm

**Q.** What about the emission maximum (in CC#N) of the same molecule?
**A.** 505 nm

**Q.** And the emission maximum (in CC(C)=O)?
**A.** 507 nm

**Q.** What about the emission maximum (in CCO) of the same molecule?
**A.** 503 nm

**Q.** What about the emission maximum (in CCOC(C)=O) of the same molecule?
**A.** 501 nm

**Q.** What about the emission maximum (in CN(C)C=O) of the same molecule?
**A.** 538 nm

**Q.** And the emission maximum (in CO)?
**A.** 525 nm

**Q.** What about the emission maximum (in Cc1ccccc1) of the same molecule?
**A.** 509 nm

**Q.** What about the emission maximum (in ClC(Cl)Cl) of the same molecule?
**A.** 505 nm

**Q.** What about the emission maximum (in ClCCl) of the same molecule?
**A.** 505 nm

**Q.** What does the source list for `CC(=O)c1ccc(-c2nc3ccc(N(C)C)c(Br)c3s2)cc1`?
**A.** emission maximum (in C1CCCCC1): 424 nm; emission maximum (in CC#N): 568 nm; emission maximum (in CC(C)O): 580.16 nm; emission maximum (in CO): 622 nm; emission maximum (in CS(C)=O): 563.56 nm; emission maximum (in ClC(Cl)Cl): 505 nm; emission maximum (in c1ccccc1): 472.87 nm

**Q.** Which emission maximum (in Cc1ccccc1) does the source give for `N#Cc1cc(N2c3ccccc3Sc3ccccc32)cc(N2c3ccccc3Sc3ccccc32)c1` here?
**A.** 536 nm

**Q.** With `COc1ccc2c(c1)CCc1c-2nc(N)c(C#N)c1-c1ccc(Br)cc1` as the molecule, how does the emission maximum (in C1CCOC1) read?
**A.** 403 nm

**Q.** What about the emission maximum (in C1COCCO1) of the same molecule?
**A.** 412 nm

**Q.** And the emission maximum (in CC#N)?
**A.** 408 nm

**Q.** And the emission maximum (in CCCCCC)?
**A.** 392 nm

**Q.** And the emission maximum (in CCO)?
**A.** 419 nm

**Q.** And the emission maximum (in CN(C)C=O)?
**A.** 423 nm

**Q.** And the emission maximum (in CO)?
**A.** 418 nm

**Q.** What about the emission maximum (in CS(C)=O) of the same molecule?
**A.** 427 nm

**Q.** What about the emission maximum (in ClC(Cl)Cl) of the same molecule?
**A.** 415 nm

**Q.** And the emission maximum (in ClCCl)?
**A.** 411 nm

**Q.** What does the source list for `FC(F)(F)C(F)(F)C(F)(F)C(F)(F)C(F)(F)C(F)(F)CCOc1nnc(Cl)nn1`?
**A.** emission maximum (in ClCCl): 566 nm; emission maximum (in OCC(F)(F)F): 555 nm

**Q.** Which emission maximum (in ClCCl) does the source give for `F[B-]1(F)Oc2ccccc2-c2c3c(c4c([n+]21)CCc1ccccc1-4)CCc1ccccc1-3` here?
**A.** 442 nm

**Q.** For `COc1cc2c(cc1F)c(=O)c1cc(F)c(OC)cc1n2C(C)C`, which emission maximum (in CCO) is on record?
**A.** 425 nm

**Q.** Which emission maximum (in ClCCl) does the source give for `[O-][n+]1c(/C=C/c2ccc3ccccc3c2)nc(N2CCOCC2)c2c1CCCC2` here?
**A.** 546 nm

**Q.** Which emission maximum (in CC#N) does the source give for `COc1ccc(-n2nc(C#N)c(N3CCC(N4CCCCC4)CC3)n2)cc1` here?
**A.** 403 nm

**Q.** Which results are given for `COc1ccc2cc(-c3ccc([N+](=O)[O-])cc3)ccc2c1`?
**A.** emission maximum (in C1CCOC1): 534 nm; emission maximum (in CC#N): 647 nm; emission maximum (in ClC(Cl)Cl): 573 nm; emission maximum (in ClCCl): 591 nm

**Q.** Which results are given for `c1ccc2c(c1)[nH]c1ccccc12`?
**A.** emission maximum (in CC#N): 340 nm; emission maximum (in CCCCCC): 332 nm; emission maximum (in CCO): 339 nm

**Q.** For `COc1cc(C#Cc2ccccc2)c(C#Cc2ccccc2)cc1OC`, which emission maximum (in CC#N) is on record?
**A.** 380 nm

**Q.** For `CCCCCCN1C(=O)c2cccc3c(-c4ccc(-c5cc(-c6cccc7ccccc67)nn5-c5ccccc5)s4)ccc(c23)C1=O`, which emission maximum (in ClCCl) is on record?
**A.** 515 nm

**Q.** For `Fc1ccc(C#Cc2c(C#Cc3ccc(F)cc3)c(C#Cc3ccc(F)cc3)c(C#Cc3ccc(F)cc3)c(C#Cc3ccc(F)cc3)c2C#Cc2ccc(F)cc2)cc1`, which emission maximum (in ClCCl) is on record?
**A.** 450 nm

**Q.** What does the source list for `N#Cc1ccc(C[C@H](N)C(=O)O)cc1`?
**A.** emission maximum (in C1CCOC1): 292.44 nm; emission maximum (in CCO): 292.99 nm; emission maximum (in CO): 292.44 nm; emission maximum (in O): 293.54 nm; emission maximum (in O=CO): 294.16 nm

**Q.** With `c12c3c4c5c1c1c6c7c2c2c8c3c3c9c4c4c%10c5c5c1c1c6c6c%11c%12c%13c%14c%15c%16c%17c%14c%14c%18c%13c%11c1c1c5c%10c5c(c%14c%10c%17c%11c%13c%16c%14c%16c%15c%12c%12c%16c(c2c7c%126)c2c8c3c(c%13c%142)c2c9c4c5c%10c%112)c%181` as the molecule, how does the emission maximum (in CC1CCCCC1) read?
**A.** 650 nm
